Assay results reported in patent EP2742955A1, “Nanoparticles based on bioconjugate of GAG” (Centre National de la Recherche Scientifique, priority 2012, dated 2014).

Key:
[1] = Permeation of Fpx across fresh intestinal tissue in Ussing-type chambers; format: in vitro ADME, male Sprague Dawley rats
Protocol: The permeation of Fpx in solution was investigated through the intestinal epithelium at 37°C, in the two directions (mucosal-to-serosal, M-S, absorptive direction and serosal-to-mucosal, S-M, secretory direction) and in presence or not of verapamil, an inhibitor of P-gp (P-glycoprotein) (Fig. 3).
Ussing-type chambers were used to evaluate the permeation of Fpx in fresh intestinal tissues, under the free form and loaded in NPs. For permeation studies non fasting male Sprague Dawley rats weighting 250 to 300 g were used. After sacrificing the rats, jejunum from fresh small intestine was excised and rinsed with chilled physiological solution (isotonic Sorensen's Phosphate buffer solution: 0.2 mM Na2HPO4; 0.2 mM NaH2PO4, H2O with a pH of 6.8). The excised intestine was cut into segments of 2 - 3 cm length and mounted in Ussing chamber (0.75 cm^2 surface area) bathed with Sorensen buffer pH 6.8 in mucosal and serosal sides. The system was maintained at 37°C and continuously oxygenated with O2/CO2 (95% /5%). After equilibration at the temperature of the experiment (15 min), Fpx in solution or loaded in NPs at the concentration of 2 mg/mL were added to the donor compartment. For this purpose, 1.2 mL of Fpx:Sq^+ NPs (at Fpx concentration of 5 mg/mL were diluted in 1.8 mL of Sorensen buffer pH 6.8 prior to the addition to the donor chamber. After 0, 30, 60, 90, 120, 150 and 180 min, 500 µL samples were taken out from the acceptor chambers and replaced with the same volume of fresh transport medium pre-equilibrated at 37°C. The samples were stored at 4°C until analysis. Fpx was quantified by the Azure A assay and Anti-Xa assay. The influence of verapamil was investigated on the intestinal permeation of Fpx in solution and loaded in NPs. For this purpose, verapamil was added to the Sorensen buffer at the concentration of 0.1 mM in the serosal compartment five minutes before the experiment.
Thus, figure 3 is a diagram showing a comparison of the permeation of Fpx across the intestinal tissue under the following experimental conditions: mucosal-to-serosal direction (M-S, continuous lines); serosal-to-mucosal direction (S-M, broken line) and in presence (open symbols) or in absence (filled symbols) of verapamil. Donor chambers contained initially 2 mg/mL of Fpx. Data represent means ± SEM of at least six independent experiments.
Donor chambers contained 2 mg/mL of Fpx and Sq^+ in molar ratio Fpx to Sq^+ 1:6. Data represent means ± SEM of at least six independent experiments.
At last, figure 5 represents a diagram showing net fluxes of Fpx in free form or in Fpx:Sq+ NPs in the presence or in the absence of verapamil when added in serosal side at 180 min. Values are indicated as means SEM at least six experiments. (** p< 0.05) Fpx:Sq^+ NPs vs Fpx:Sq NPs + verapamil; (* p< 0.05) Fpx vs Fpx:Sq^+ NPs; (**** p<0.05) Fpx + verapamil vs Fpx.

[2] = Plasma Fpx concentration (anti-FXa assay) after oral and intravenous administration of aqueous nanoparticulate suspensions; format: in vivo, male Sprague-Dawley rats
Protocol: The anticoagulant activity of Fpx:Sq^+ aqueous nanoparticulate suspensions of example 4 was evaluated in vivo after oral and intravenous (IV) administration in male Sprague-Dawley rats. The following formulations were administrated orally to the rats (n=4) with the help of feeding needle (Harvard Apparatus, France): NPs at the optimized ratio 1:6 at 25 mg/kg (eq. Fpx) and 50 mg/kg (eq. Fpx), Fpx saline solution at 50 mg/kg and isotonic sodium chloride solution as control. The volume of the administrated solution was 1 mL per 100 g of the rat weight. Blood samples were periodically taken from the jugular vein after anesthesia with isoflurane and the plasma concentration of active Fpx was estimated using an anti-FXa assay. Additionally, a saline solution of Fpx and NPs at the optimized ratio 1:6, both at 200 µg/kg (eq. Fpx) were injected intravenously to the rats (n=3) through the tail vein after anesthesia with isoflurane. Blood samples were periodically taken and the plasma concentration of active Fpx was estimated using an anti-FXa assay. […]

permeated Fpx concentration ([1]; M-S direction, 120 min, absence of verapamil, donor 2 mg/mL Fpx, 37°C): 4.5 µg/mL | permeated Fpx concentration ([1]; M-S direction, 180 min, absence of verapamil, donor 2 mg/mL Fpx, 37°C): 4.9 µg/mL | permeated Fpx concentration ([1]; M-S direction, 180 min, verapamil 0.1 mM in the receptor (serosal) compartment): 12.6 µg/mL | permeated Fpx concentration ([1]; S-M direction, 180 min, absence of verapamil, donor 2 mg/mL Fpx, 37°C): 7.8 µg/mL | factor of increase of Fpx fluxes in the presence of verapamil ([1]; net fluxes at 180 min, verapamil in serosal side, vs free Fpx): 4.2 | Cmax ([2]; male, Sprague-Dawley, rat, plasma, 200 ug/kg, intravenous, 200 µg/kg (eq. Fpx), rats n=3, read-out: maximum plasma concentration (Cmax)): 160 ng/mL | oral absorption (concentration-time profile vs control group) ([2]; oral, saline solution 50 mg/kg): not absorbed
Structure (SMILES): CO[C@H]1O[C@H](COS(=O)(=O)O)[C@@H](O[C@@H]2O[C@@H](C(=O)O)[C@@H](O[C@H]3O[C@H](COS(=O)(=O)O)[C@@H](O[C@@H]4O[C@H](C(=O)O)[C@@H](O[C@H]5O[C@H](COS(=O)(=O)O)[C@@H](O)[C@H](O)[C@H]5NS(=O)(=O)O)[C@H](O)[C@H]4O)[C@H](OS(=O)(=O)O)[C@H]3NS(=O)(=O)O)[C@H](O)[C@H]2OS(=O)(=O)O)[C@H](O)[C@H]1NS(=O)(=O)O [Fpx, Fondaparinux]
